Assay results: article PMC6751662, “Pharmacological and functional similarities of the human neuropeptide Y system in C. elegans challenges phylogenetic views on the FLP/NPR system” (Cell Communication and Signaling : CCS, 2019)

Columns and labels:
Y4R = biological target: T1, Y4R (Homo sapiens, UniProt P50391); assay: cAMP reporter gene assay, Gi/o, Y4R; type: cell-based; conditions: for cAMP assay (Gi/o), Y4R: 4 h, lower = higher Gi/o activity, transfected HEK293, CRE-luciferase, mean of >=3 independent experiments; for Gi (Gs) [x-fold of forskolin], Y4R, mean: inhibition of cAMP production induced by 1 µM forskolin (set to 1.00), transiently transfected HEK293 cells, mean of at least three independent experiments
T1 construct: expressed in transfected cells; host or cells: HEK293, transient
Description: (§1) Activation of Gs and Gi/o was assessed with a cAMP reporter gene assay. HEK293 cells grown to 70–80% confluency in 6-well plates were transiently co-transfected with vectors encoding the receptor and the cAMP reporter gene plasmid pGL4.29 [luc2P/CRE/Hygro] (Promega; 4 μg total, 1:1 ratio) using Metafectene Pro (3 μl/μg DNA; Biontex) following the manufacturer’s instructions. 16 h post transfection, the cells were seeded into white 384-well plates at a density of 20,000 cells/well. On the next day, the medium was removed and the cells were stimulated with 20 μl of peptide solution (or forskolin as positive control) in serum-free DMEM for 4 h. For measuring Gi/o activity, the peptide solutions additionally contained 1 μM forskolin to elevate cellular cAMP levels. After incubation, the luciferase substrate OneGlo in lysis buffer (Promega) was added and the luminescence was measured in a microplate reader Tecan Spark (Tecan). Data were analyzed with GraphPad Prism 5.03 and are shown as fold of basal or fold of forskolin in case of Gαi/o activity.
(§2) For in vitro activation, data is presented as mean ± SEM of at least three independent experiments conducted in technical triplicate. […] For the C. elegans NPRs, we considered the strongest response elicited by any of the peptides downstream of a particular receptor as the receptor’s maximal signal. This may or may not be the biological maximum that can be reached by the ‘true’ endogenous agonist. For the human receptors, the response to the established endogenous agonist reflected the maximal signal.

Y5R = biological target: T2, Y5R (Homo sapiens, UniProt Q15761); assay: cAMP reporter gene assay, Gi/o, Y5R; type: cell-based; conditions: for cAMP assay (Gi/o), Y5R: 4 h, lower = higher Gi/o activity, transfected HEK293, CRE-luciferase, mean of >=3 independent experiments; for Gi (Gs) [x-fold of forskolin], Y5R, mean: inhibition of cAMP production induced by 1 µM forskolin (set to 1.00), transiently transfected HEK293 cells, mean of at least three independent experiments
T2 construct: expressed in transfected cells; host or cells: HEK293, transient
T2 sequence (Q15761 1-445): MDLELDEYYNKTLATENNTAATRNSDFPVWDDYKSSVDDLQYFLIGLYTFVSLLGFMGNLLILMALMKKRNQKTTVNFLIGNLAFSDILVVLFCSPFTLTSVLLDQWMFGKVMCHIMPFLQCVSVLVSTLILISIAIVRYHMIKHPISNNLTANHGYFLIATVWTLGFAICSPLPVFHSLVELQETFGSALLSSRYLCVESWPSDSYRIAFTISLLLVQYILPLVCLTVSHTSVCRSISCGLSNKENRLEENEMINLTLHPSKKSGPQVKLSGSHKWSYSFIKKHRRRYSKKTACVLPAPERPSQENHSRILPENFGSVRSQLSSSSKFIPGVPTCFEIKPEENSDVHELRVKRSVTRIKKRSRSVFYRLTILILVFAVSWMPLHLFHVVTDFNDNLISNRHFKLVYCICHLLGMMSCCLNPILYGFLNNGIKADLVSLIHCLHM
Description: as §1, §2

NPR-3 = biological target: T3, NPR-3 (Caenorhabditis elegans, UniProt P90745); assay: IP accumulation assay, chimeric GαΔ6qi4myr, NPR-3; type: cell-based, C. elegans; conditions: 1 h, HBSS + 20 mM LiCl, HEK293 receptor + GαΔ6qi4myr, HTRF IP-One
T3 construct: expressed in transfected cells; host or cells: HEK293
T3 sequence (P90745 1-376): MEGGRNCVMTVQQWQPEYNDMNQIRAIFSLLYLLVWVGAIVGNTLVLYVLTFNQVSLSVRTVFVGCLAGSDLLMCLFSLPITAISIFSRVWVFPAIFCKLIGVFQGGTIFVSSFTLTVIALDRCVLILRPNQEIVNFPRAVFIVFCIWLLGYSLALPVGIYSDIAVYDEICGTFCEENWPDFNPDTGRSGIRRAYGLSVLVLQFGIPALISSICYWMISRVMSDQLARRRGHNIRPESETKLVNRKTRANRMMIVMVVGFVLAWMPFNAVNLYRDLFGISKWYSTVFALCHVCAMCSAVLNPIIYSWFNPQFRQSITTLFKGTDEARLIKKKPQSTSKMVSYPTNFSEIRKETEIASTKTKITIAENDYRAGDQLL
Description: (§3) For measuring IP accumulation, HEK293 cells grown to 70–80% confluency in 6-well plates were transiently co-transfected using Metafectene Pro (2.5 μl/μg DNA; Biontex) with plasmids containing receptor and/or mock (empty pcDNA3.1) (for endogenous Gq-coupling) using 4 μg total DNA in a ratio of 3:1 following the manufacturer’s instructions. For testing Gα16- and GαΔ6qi4myr-coupling, plasmids encoding the corresponding Gα protein were co-transfected instead of mock. Gα16 is naturally promiscuous and stimulates the phospholipase C (PLC) pathway leading to IP production, while the exchange of the C-terminal four amino acids of Gαq for the corresponding residues of Gαi1 in the chimeric GαΔ6qi4myr confers the ability to couple to Gi/o protein-preferring receptors but still stimulate PLC, thus specifically redirecting downstream cellular signaling. 16 h post transfection, the cells were seeded into white 384-well plates at a density of 20,000 cells/well. Media was removed 24 h later and the cells were incubated with the indicated concentration of peptides for 1 h in HBSS + 20 mM LiCl. IP accumulation was measured with the HTRF-based IP-One Gq kit (Cisbio) on a microplate reader (Tecan Spark).
as §2

NPR-6 = assay: IP accumulation assay, chimeric GαΔ6qi4myr, NPR-6; type: cell-based, C. elegans; conditions: 1 h, HBSS + 20 mM LiCl, HEK293 receptor + GαΔ6qi4myr, HTRF IP-One
Description: as §3, §2

NPR-1 = biological target: T4, NPR-1 (Caenorhabditis elegans, UniProt Q18534); assay: IP accumulation assay, chimeric GαΔ6qi4myr, NPR-1; type: cell-based, C. elegans; parameters: expressed in transfected cells; host or cells: HEK293; conditions: 1 h, HBSS + 20 mM LiCl, HEK293 receptor + GαΔ6qi4myr, HTRF IP-One
T4 sequence (Q18534 1-457): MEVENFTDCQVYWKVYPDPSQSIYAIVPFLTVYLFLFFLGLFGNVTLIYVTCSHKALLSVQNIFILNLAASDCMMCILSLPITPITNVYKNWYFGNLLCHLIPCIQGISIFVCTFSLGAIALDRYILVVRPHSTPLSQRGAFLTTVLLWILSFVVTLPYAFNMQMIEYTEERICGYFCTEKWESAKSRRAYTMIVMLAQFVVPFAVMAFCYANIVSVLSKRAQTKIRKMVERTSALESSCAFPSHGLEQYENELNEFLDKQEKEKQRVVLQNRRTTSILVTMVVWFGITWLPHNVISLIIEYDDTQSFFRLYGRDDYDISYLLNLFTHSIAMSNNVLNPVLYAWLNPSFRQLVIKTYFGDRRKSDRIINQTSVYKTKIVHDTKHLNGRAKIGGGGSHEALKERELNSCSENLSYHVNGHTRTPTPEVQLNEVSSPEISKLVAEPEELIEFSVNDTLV
Description: as §3, §2

[1] = 0.1 µM peptide + 1 µM forskolin (set to 1.00)
[2] = 10 µM peptide + 1 µM forskolin (set to 1.00)
[3] = 0.1 nM peptide (Table S5), mean of >=3 independent experiments
[4] = 0.1 µM peptide (Table S8), mean of >=3 independent experiments
[5] = 10 µM peptide, mean of >=3 independent experiments (Tables S5 and S8)

T1 sequence (P50391 whole entry): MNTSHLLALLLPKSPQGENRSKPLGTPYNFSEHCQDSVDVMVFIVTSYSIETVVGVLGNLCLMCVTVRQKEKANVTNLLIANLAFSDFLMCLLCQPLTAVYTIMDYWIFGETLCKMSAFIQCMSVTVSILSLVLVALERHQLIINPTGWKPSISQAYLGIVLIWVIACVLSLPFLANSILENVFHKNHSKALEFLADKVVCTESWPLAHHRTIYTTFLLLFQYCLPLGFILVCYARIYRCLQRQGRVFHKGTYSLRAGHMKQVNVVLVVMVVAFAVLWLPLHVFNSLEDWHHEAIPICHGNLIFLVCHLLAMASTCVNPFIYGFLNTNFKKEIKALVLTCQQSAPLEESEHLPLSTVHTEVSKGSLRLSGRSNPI

IP accumulation with GαΔ6qi4myr, NPR-3 (NPR-3; [4])	IP accumulation with GαΔ6qi4myr, NPR-3 (NPR-3; [5])	IP accumulation with GαΔ6qi4myr, NPR-1 (NPR-1; [4])	IP accumulation with GαΔ6qi4myr, NPR-1 (NPR-1; [5])	Substance	IP accumulation with GαΔ6qi4myr, NPR-6 (NPR-6; [4])	IP accumulation with GαΔ6qi4myr, NPR-6 (NPR-6; [5])	also measured
–	–	–	–	EASAFGDIIGELKGKGLGGRMRF-NH2 [FLP-27, NPY-like C. elegans FLP with C-terminal RxRF/Ya signature]	–	–	cAMP assay (Gi/o), Y4R (Y4R; [1]): 1.01 x-fold of forskolin; cAMP assay (Gi/o), Y4R (Y4R; [2]): 0.75 x-fold of forskolin; cAMP assay (Gi/o), Y5R (Y5R; [1]): 1.07 x-fold of forskolin; cAMP assay (Gi/o), Y5R (Y5R; [2]): 0.96 x-fold of forskolin
–	–	–	–	APLEGFEDMSGFLRTIDGIQKPRF-NH2 [FLP-33, NPY-like C. elegans FLP with C-terminal RxRF/Ya signature]	–	–	cAMP assay (Gi/o), Y4R (Y4R; [1]): 0.95 x-fold of forskolin; cAMP assay (Gi/o), Y4R (Y4R; [2]): 0.90 x-fold of forskolin; cAMP assay (Gi/o), Y5R (Y5R; [1]): 0.94 x-fold of forskolin; cAMP assay (Gi/o), Y5R (Y5R; [2]): 0.99 x-fold of forskolin
0.88 x-fold of basal	0.95 x-fold of basal	0.88 x-fold of basal	0.93 x-fold of basal	APKPKFIRF-NH2 [FLP-5-1, C. elegans FMRFamide-like peptide, C-terminally amidated, synthesized by SPPS]	0.96 x-fold of basal	0.98 x-fold of basal	IP assay endog. Gαq + GαΔ6qi4myr, NPR-3 (NPR-3; [3]): 0.88 x-fold of basal; IP assay endog. Gαq + GαΔ6qi4myr, NPR-6 (NPR-6; [3]): 0.96 x-fold of basal; IP assay endog. Gαq + GαΔ6qi4myr, NPR-1 (NPR-1; [3]): 0.88 x-fold of basal
–	–	–	–	GLGPRPLAF-NH2 [[R8A]FLP-21, R8A control peptide of FLP-21, penultimate arginine exchanged for an alanine]	–	–	Gi (Gs) [x-fold of forskolin], Y4R, mean (Y4R; 0.1 µM peptide): 0.81 x-fold of forskolin; Gi (Gs) [x-fold of forskolin], Y4R, mean (Y4R; 10 µM peptide): 0.85 x-fold of forskolin; Gi (Gs) [x-fold of forskolin], Y5R, mean (Y5R; 0.1 µM peptide): 0.84 x-fold of forskolin; Gi (Gs) [x-fold of forskolin], Y5R, mean (Y5R; 10 µM peptide): 0.87 x-fold of forskolin
0.92 x-fold of basal	1.05 x-fold of basal	0.83 x-fold of basal	0.89 x-fold of basal	ASPSFIRF-NH2 [FLP-4-2, C. elegans FMRFamide-like peptide, C-terminally amidated, synthesized by SPPS]	0.96 x-fold of basal	1.19 x-fold of basal	–
–	–	–	–	RGPSGPLAF-NH2 [[R8A]FLP-15-2]	–	–	Gi (Gs) [x-fold of forskolin], Y4R, mean (Y4R; 0.1 µM peptide): 0.79 x-fold of forskolin; Gi (Gs) [x-fold of forskolin], Y4R, mean (Y4R; 10 µM peptide): 0.94 x-fold of forskolin; Gi (Gs) [x-fold of forskolin], Y5R, mean (Y5R; 0.1 µM peptide): 0.89 x-fold of forskolin; Gi (Gs) [x-fold of forskolin], Y5R, mean (Y5R; 10 µM peptide): 0.91 x-fold of forskolin
0.97 x-fold of basal	0.91 x-fold of basal	0.98 x-fold of basal	0.94 x-fold of basal	NPENDTPFGTMRF-NH2 [FLP-3-4, C. elegans FMRFamide-like peptide, C-terminally amidated, synthesized by SPPS]	1.04 x-fold of basal	5.43 x-fold of basal	–
0.96 x-fold of basal	0.93 x-fold of basal	1.03 x-fold of basal	0.98 x-fold of basal	AGSDPNFLRF-NH2 [FLP-1-2, C. elegans FMRFamide-like peptide, C-terminally amidated, synthesized by SPPS]	1.14 x-fold of basal	5.19 x-fold of basal	–
